{"source": "paper PMC6378217", "about": "“The lysyl oxidase like 2/3 enzymatic inhibitor, PXS‐5153A, reduces crosslinks and ameliorates fibrosis” (Journal of Cellular and Molecular Medicine, 2018)", "key": {"Native human LOX": {"target": "T1, Native human LOX (Homo sapiens, UniProt P28300)", "T1 construct": "collecting the 30-kDa LOX in the lower molecular weight portion; host or cells: IMR90 conditioned medium", "T1 sequence (P28300 169-417)": "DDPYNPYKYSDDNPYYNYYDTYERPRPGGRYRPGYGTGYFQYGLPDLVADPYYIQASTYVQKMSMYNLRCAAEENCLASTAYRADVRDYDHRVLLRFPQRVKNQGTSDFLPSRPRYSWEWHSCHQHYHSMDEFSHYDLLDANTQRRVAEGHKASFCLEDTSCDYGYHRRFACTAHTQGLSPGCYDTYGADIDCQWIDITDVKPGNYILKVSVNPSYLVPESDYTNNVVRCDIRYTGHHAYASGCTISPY", "experiment": "Amplex-Red fluorometric enzymatic activity assay, native human LOX (IMR90 conditioned medium)", "format": "biochemical", "settings": "30 minute pre-incubation; average of at least three experiments", "experimental": "(§1) The measurement of the enzymatic activity of all lysyl oxidase family members was based on the detection of hydrogen peroxide with an Amplex‐Red oxidation assay, as described in Zhou et al26 Recombinant human semicarbazide sensitive amine oxidase (SSAO/VAP1), diamine oxidase (DAO) and monoamine oxidases A and B (MAO‐A and MAO‐B) assays were performed as previously described.27 For detailed enzymatic procedures, see supporting information.\n(§2) The measurement of the enzymatic activity of all lysyl oxidase family members was based on the detection of hydrogen peroxide with an Amplex-Red oxidation assay, as described in Zhou et al.[1]; miniaturised in 384 well format, with the appropriate combination of substrate and assay buffer for each individual enzyme. After a 30 minute pre-incubation of the enzyme at 37 °C with the test compound (or with different incubation times for the time-dependency assay), one volume of reaction mixture containing 120 μM Amplex Red (AR) (Life Technologies), 1.5 U/mL horseradish peroxidase (HRP) (Sigma-Aldrich) and the specific substrate was added to each sample. The relative fluorescence units (RFU) were then measured every 2.5 minutes for 30 minutes at 37°C, excitation 565 nm and emission 590, on a BMG Clariostar Microplate Reader. […]"}, "MAO-A": {"target": "MAO-A (Homo sapiens, UniProt P21397)", "sequence (P21397 whole entry)": "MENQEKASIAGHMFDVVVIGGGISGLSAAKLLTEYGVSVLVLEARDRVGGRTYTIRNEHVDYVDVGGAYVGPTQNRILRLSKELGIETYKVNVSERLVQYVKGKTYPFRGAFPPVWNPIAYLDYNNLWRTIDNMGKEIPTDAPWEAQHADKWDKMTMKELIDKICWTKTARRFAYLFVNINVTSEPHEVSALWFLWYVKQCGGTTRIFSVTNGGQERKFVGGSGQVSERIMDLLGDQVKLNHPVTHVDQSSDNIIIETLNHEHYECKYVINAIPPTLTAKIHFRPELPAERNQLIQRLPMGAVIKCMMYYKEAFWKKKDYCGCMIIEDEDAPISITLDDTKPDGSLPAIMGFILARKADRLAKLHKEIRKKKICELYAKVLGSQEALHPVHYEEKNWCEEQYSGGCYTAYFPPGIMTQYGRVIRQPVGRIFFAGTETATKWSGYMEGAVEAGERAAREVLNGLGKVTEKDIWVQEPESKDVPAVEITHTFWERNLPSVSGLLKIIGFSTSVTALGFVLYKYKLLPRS", "experiment": "MAO-A enzymatic activity assay", "format": "biochemical", "experimental": "as §1\nRecombinant human semicarbazide sensitive amine oxidase (SSAO/VAP1), diamine oxidase (DAO) and monoamine oxidases A and B (MAO-A and MAO-B) assays were performed as previously described."}, "LOXL2": {"system": "LOXL2", "experiment": "LOXL2 enzymatic activity across all mammalian species tested", "format": "biochemical", "experimental": "as §1, §2"}, "[1]": {"system": "Calcium Channel L-Type, Dihydropyridine", "experiment": "Eurofins Hit Profiling Screen", "format": "binding, rat", "settings": "10 μmol/L"}, "Dopamine D2S": {"target": "Dopamine D2S (Homo sapiens, UniProt P14416)", "sequence (P14416 1-414 isoform P14416-2)": "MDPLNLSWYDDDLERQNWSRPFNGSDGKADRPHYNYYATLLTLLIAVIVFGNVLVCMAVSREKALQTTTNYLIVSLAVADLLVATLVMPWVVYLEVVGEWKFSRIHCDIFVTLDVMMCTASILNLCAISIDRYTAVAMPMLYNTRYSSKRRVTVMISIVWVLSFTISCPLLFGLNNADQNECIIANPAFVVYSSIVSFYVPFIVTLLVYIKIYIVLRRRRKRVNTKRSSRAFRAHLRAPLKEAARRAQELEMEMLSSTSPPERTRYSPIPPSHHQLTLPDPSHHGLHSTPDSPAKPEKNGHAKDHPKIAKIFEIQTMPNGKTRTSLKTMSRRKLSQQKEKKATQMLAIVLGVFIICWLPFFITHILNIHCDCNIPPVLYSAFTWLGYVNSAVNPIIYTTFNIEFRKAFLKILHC", "experiment": "Eurofins Hit Profiling Screen", "format": "binding", "settings": "10 μmol/L"}, "[2]": {"target": "Nicotinic Acetylcholine α1, Bungarotoxin (Homo sapiens, UniProt P02708+P07510+Q07001)", "sequence (Q07001 22-517)": "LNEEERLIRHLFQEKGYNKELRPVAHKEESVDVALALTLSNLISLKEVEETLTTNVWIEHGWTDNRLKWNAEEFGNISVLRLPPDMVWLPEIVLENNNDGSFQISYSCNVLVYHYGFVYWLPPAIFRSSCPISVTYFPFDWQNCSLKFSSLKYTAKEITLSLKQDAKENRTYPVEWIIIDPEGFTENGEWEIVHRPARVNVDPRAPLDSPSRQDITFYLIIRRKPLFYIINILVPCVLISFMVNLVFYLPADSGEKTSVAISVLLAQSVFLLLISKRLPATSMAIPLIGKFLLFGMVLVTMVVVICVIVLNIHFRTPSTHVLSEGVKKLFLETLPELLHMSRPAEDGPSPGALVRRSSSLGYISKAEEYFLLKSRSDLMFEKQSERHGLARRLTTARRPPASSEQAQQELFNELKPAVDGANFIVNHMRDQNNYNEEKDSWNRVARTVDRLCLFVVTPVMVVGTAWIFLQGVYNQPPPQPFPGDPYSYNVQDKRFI", "sequence (P02708 21-457)": "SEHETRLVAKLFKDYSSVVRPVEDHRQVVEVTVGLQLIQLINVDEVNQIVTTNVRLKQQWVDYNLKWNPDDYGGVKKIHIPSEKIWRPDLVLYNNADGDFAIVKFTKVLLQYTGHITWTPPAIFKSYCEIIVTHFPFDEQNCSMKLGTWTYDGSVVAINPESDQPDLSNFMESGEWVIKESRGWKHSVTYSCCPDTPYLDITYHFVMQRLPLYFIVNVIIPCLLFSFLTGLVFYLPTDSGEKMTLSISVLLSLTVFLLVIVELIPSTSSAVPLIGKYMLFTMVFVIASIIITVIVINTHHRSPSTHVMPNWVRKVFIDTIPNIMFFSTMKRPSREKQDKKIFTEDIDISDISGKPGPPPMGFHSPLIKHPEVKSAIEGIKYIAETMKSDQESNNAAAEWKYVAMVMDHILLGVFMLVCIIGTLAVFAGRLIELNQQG", "sequence (P07510 23-517)": "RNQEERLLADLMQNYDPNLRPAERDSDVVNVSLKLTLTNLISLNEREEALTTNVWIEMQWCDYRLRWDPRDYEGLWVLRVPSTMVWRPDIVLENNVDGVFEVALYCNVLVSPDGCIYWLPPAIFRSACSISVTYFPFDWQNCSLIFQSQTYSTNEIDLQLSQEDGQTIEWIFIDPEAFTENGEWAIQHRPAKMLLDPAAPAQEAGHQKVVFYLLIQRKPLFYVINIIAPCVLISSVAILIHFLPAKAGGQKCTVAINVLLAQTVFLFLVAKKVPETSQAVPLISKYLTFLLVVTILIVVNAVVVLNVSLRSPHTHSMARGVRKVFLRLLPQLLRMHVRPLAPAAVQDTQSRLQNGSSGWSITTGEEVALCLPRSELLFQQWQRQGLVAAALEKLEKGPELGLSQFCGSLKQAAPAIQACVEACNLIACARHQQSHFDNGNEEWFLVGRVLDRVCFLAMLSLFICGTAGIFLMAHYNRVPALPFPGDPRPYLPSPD", "sequence (P11230 24-501, further chain)": "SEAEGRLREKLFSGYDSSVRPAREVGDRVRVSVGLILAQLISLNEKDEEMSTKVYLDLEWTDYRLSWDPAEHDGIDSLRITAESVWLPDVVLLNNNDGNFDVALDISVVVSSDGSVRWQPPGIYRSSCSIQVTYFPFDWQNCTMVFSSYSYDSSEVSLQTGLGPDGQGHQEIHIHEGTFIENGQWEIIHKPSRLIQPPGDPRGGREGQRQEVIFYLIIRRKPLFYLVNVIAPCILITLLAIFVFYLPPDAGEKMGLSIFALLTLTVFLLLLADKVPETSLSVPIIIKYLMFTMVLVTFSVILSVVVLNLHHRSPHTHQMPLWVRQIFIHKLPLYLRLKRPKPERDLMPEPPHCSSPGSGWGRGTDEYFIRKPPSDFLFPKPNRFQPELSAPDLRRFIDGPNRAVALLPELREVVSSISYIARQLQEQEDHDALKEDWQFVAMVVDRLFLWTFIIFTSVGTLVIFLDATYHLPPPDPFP", "experiment": "Eurofins Hit Profiling Screen", "format": "binding", "settings": "10 μmol/L"}, "Opiate μ (OP3, MOP)": {"target": "Opiate μ (OP3, MOP) (Homo sapiens, UniProt P35372)", "sequence (P35372 whole entry)": "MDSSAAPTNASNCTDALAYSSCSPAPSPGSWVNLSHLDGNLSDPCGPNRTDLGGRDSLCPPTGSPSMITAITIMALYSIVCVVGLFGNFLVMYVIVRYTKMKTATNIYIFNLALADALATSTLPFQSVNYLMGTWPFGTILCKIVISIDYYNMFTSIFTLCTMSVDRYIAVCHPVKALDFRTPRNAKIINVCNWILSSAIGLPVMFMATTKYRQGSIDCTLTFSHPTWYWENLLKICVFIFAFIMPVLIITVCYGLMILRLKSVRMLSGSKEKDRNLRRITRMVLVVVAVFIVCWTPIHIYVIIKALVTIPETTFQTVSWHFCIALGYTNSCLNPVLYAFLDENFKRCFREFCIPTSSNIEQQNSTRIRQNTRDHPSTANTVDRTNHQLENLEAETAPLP", "experiment": "Eurofins Hit Profiling Screen", "format": "binding", "settings": "10 μmol/L"}, "Phorbol Ester": {"system": "Phorbol Ester", "experiment": "Eurofins Hit Profiling Screen", "format": "binding", "settings": "10 μmol/L"}, "Potassium Channel [KATP]": {"target": "Potassium Channel [KATP] (Cricetus cricetus, UniProt Q09427)", "experiment": "Eurofins Hit Profiling Screen", "format": "binding", "settings": "10 μmol/L", "experimental": "PXS‐5153A was tested at Eurofins Cerep Panlabs Taiwan, Ltd in the “Hit Profiling Screen”, which tested 30 different targets.\nEurofins Hit Profiling Screen, was performed to evaluate the off -target profile of PXS-5153A. Biochemical assay results are presented as the percent inhibition of specific binding or activity."}, "Prostanoid EP4": {"target": "Prostanoid EP4 (Homo sapiens, UniProt P35408)", "sequence (P35408 whole entry)": "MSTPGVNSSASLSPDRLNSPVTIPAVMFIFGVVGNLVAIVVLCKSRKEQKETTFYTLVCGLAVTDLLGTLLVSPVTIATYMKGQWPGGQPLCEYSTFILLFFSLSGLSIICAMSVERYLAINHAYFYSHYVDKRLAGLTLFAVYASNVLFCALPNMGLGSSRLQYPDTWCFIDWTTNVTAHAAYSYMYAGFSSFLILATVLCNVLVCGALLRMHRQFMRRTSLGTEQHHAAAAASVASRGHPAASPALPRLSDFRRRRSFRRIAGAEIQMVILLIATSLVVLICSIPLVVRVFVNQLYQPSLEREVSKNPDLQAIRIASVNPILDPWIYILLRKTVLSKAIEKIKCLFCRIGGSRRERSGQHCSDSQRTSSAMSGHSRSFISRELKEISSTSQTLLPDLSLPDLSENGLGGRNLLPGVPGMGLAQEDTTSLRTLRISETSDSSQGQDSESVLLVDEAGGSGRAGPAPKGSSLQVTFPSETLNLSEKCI", "experiment": "Eurofins Hit Profiling Screen", "format": "binding", "settings": "10 μmol/L"}, "[3]": {"system": "CCl4-induced liver fibrosis", "experiment": "CCl4-induced liver fibrosis", "format": "in vivo, Sprague Dawley rats", "experimental": "Pellet then underwent acid hydrolysis in 6 mol/L HCl at 100°C for 24 hours. Hydroxyproline and crosslinks were extracted from the hydrolysate using an automated solid phase extraction system (Gilson […] system). After extraction and drying, hydroxyproline and crosslinks were analysed by UHPLC-ESI-MS/MS on a Thermo Dionex UHPLC and TSQ Endura triple quad mass spectrometer. Total protein was quantified in the samples using a commercially available kit (QuickZyme Biosciences, Leiden, The Netherlands). For detailed procedures, see supporting information. The study was performed by Pharmalegacy with approval from local ethics committee. […] Animals were killed 48 hours after the last CCl4 administration. […] Alanine aminotransferase (ALT) and aspartate aminotransferase (AST) levels were assessed in the plasma. One lobe of the liver tissue was fixed in 10% formalin, stained for Sirius red and the percentage coverage area was measured. The remainder of the liver was snap frozen and used for protein, hydroxyproline and crosslink analysis."}, "Myocardial infarction": {"system": "Myocardial infarction", "experiment": "Myocardial infarction (left coronary artery occlusion)", "format": "in vivo, C57/BL6 mice", "settings": "25 mg/kg q.d., p.o., 4 weeks; compared to infarcted untreated animals", "experimental": "The study was performed by CL Laboratory (Baltimore, USA) with approval from the Institutional Animal Care and Use Committee. Myocardial infarction (MI) was induced in C57/BL6 mice by occluding the left coronary artery. The same surgery but without occluding the left coronary artery was used as a sham control. At 24 hours post‐surgery, animals received echocardiography. Infarcted mice with high cardiac function (FS > 40%) or low cardiac function (FS < 10%) were excluded from the study. The remaining mice were treated q.d., p.o., with 25 mg/kg of PXS‐5153A for 4 weeks. At the end of the experiment, echocardiography was performed on mice to assess left ventricular function and remodelling, followed by heart collection. The heart was fixed with 10% formalin. Fibrosis was assessed in the non‐infarct area. Fibrotic blue area and whole non‐infarct area were measured using computerized planimetry (Image J). The fibrotic area was presented as a percentage of the whole non‐infarct area. Three random fields per heart were counted, averaged and a total of 30‐45 fields per group were measured."}}}
{"smiles": "Cc1c(-c2cccc(S(=O)(=O)N(C)C)c2)c2ncccc2n1C/C(F)=C/CN.Cl.Cl", "note": "[PXS-5153A]", "values": [{"measurement": "IC50", "setting": "Native human LOX", "result": 1.79, "unit": "µM"}, {"measurement": "pIC50 ± SD", "setting": "Native human LOX", "result": "5.7 ± 0.16"}, {"measurement": "IC50", "setting": "MAO-A", "result": "> 30", "unit": "µM"}, {"measurement": "IC50", "setting": "LOXL2", "result": "< 0.04", "unit": "µM"}, {"measurement": "% inhibition", "setting": "[1]", "result": 80, "unit": "%"}, {"measurement": "% inhibition", "setting": "Dopamine D2S", "result": 10, "unit": "%"}, {"measurement": "% inhibition", "setting": "[2]", "result": 2, "unit": "%"}, {"measurement": "% inhibition", "setting": "Opiate μ (OP3, MOP)", "result": 11, "unit": "%"}, {"measurement": "% inhibition", "setting": "Phorbol Ester", "result": 2, "unit": "%"}, {"measurement": "% inhibition", "setting": "Potassium Channel [KATP]", "result": 8, "unit": "%"}, {"measurement": "% inhibition", "setting": "Prostanoid EP4", "result": 11, "unit": "%"}, {"measurement": "mature crosslink formation (PYD + DPD)", "setting": "[3]", "result": "reduced"}, {"measurement": "reduction of HYP content", "setting": "[3]; all dosing regimens", "result": "> 30", "unit": "%"}, {"measurement": "DHLNL formation", "setting": "[3]; all groups with therapeutic treatment", "result": "significant reduction"}, {"measurement": "PYD", "setting": "[3]; all groups, only high dose q.d. statistically significant", "result": "different degrees of reduction"}, {"measurement": "reduction of collagen accumulation (Picrosirius red)", "setting": "[3]; both of the daily dosing groups", "result": "up to 51%"}, {"measurement": "DHLNL/HYP ratio increase", "setting": "[3]; crosslink normalized relative to hydroxyproline content", "result": "reversed"}, {"measurement": "DPD crosslinks", "setting": "[3]; high dose q.d. treatment", "result": "significantly reduced"}, {"measurement": "liver injury, ALT and AST", "setting": "[3]; high dose q.d. treatment compared with the CCl4 treated animals", "result": "significantly dampened"}, {"measurement": "immature crosslink formation (DHLNL + HLNL)", "setting": "[3]; therapeutic treatment, compared with the CCl4 treated animals", "result": "substantially reduced"}, {"measurement": "ejection fraction", "setting": "Myocardial infarction", "result": "improvement"}, {"measurement": "fractional shortening", "setting": "Myocardial infarction", "result": "improvement"}, {"measurement": "percentage fibrotic coverage area", "setting": "Myocardial infarction", "result": "decrease"}]}
